# Measurements taken from ChEMBL document CHEMBL1697781, “Assessment of the health effects of chemicals in humans: II. Construction of an adverse effects database for QSAR modeling” (Curr Drug Discov Technol, 2004).
# What was measured:
# Settings in all cases: human; call rule not given here
# Hepatotoxicity [1] = assay: FDA HLAED, serum glutamic oxaloacetic transaminase (SGOT) increase
# Hepatotoxicity [2] = assay: FDA HLAED, serum glutamic pyruvic transaminase (SGPT) increase
# Hepatotoxicity [3] = assay: FDA HLAED, alkaline phosphatase increase
# Hepatotoxicity [4] = assay: FDA HLAED, lactate dehydrogenase (LDH) increase
# Hepatotoxicity [5] = assay: FDA HLAED, liver enzyme composite activity
# Hepatotoxicity [6] = assay: FDA HLAED, gamma-glutamyl transferase (GGT) increase
# For GGT Increase - Index Value in this document: reference of the scale not given here.
# For LDH Increase - Index Value in this document: reference of the scale not given here.
Compound,SGOT Increase - Activity Score (Hepatotoxicity [1]),SGOT Increase - Index Value (Hepatotoxicity [1]),SGOT Increase - Number of Reports (Hepatotoxicity [1]),SGPT Increase - Activity Score (Hepatotoxicity [2]),SGPT Increase - Index Value (Hepatotoxicity [2]),SGPT Increase - Number of Reports (Hepatotoxicity [2]),Alkaline Phosphatase Increase - Activity Score (Hepatotoxicity [3]),Alkaline Phosphatase Increase - Index Value (Hepatotoxicity [3]),Alkaline Phosphatase Increase - Number of Reports (Hepatotoxicity [3]),LDH Increase - Activity Score (Hepatotoxicity [4]),LDH Increase - Index Value (Hepatotoxicity [4]),LDH Increase - Number of Reports (Hepatotoxicity [4]),Composite Activity - Active (Hepatotoxicity [5]),Composite Activity - Marginal (Hepatotoxicity [5]),Composite Activity - Score (Hepatotoxicity [5]),GGT Increase - Activity Score (Hepatotoxicity [6]),GGT Increase - Index Value (Hepatotoxicity [6]),GGT Increase - Number of Reports (Hepatotoxicity [6]),further results
CO/N=C(\C(=O)N[C@@H]1C(=O)N2C(C(=O)O)=C(CSc3nc(=O)c(=O)[nH]n3C)CS[C@H]12)c1csc(N)n1 [CEFTRIAXONE],Marginally Active,3.8,>= 4,Marginally Active,3.8,>= 4,Marginally Active,3.4,>= 4,Inactive,1.9,>= 4,0,3,Inactive,Inactive,2.6,>= 4,
CO/N=C(\C(=O)N[C@@H]1C(=O)N2C(C(=O)OC(C)OC(C)=O)=C(COC(N)=O)CS[C@H]12)c1ccco1 (stereo partly specified) [CEFUROXIME AXETIL],Inactive,0,< 4,Inactive,0,< 4,Inactive,0,< 4,Inactive,0,< 4,0,0,Inactive,Inactive,0,< 4,
CO/N=C(/C(=O)N[C@@H]1C(=O)N2C(C(=O)OC(C)OC(=O)C(C)(C)OC)=C(COC(N)=O)CS[C@H]12)c1ccco1 (stereo partly specified) [CEFUROXIME PIVOXETIL],Inactive,0,< 4,Inactive,0,< 4,Inactive,0,< 4,Inactive,0,< 4,0,0,Inactive,Inactive,0,< 4,
CO/N=C(\C(=O)N[C@@H]1C(=O)N2C(C(=O)O)=C(COC(N)=O)CS[C@H]12)c1ccco1 [CEFUROXIME],Inactive,0.2,< 4,Inactive,0,< 4,Inactive,0,< 4,Inactive,0,< 4,0,0,Inactive,Inactive,0,< 4,
CC(=O)OCC1=C(C(=O)O)N2C(=O)[C@@H](NC(=O)CSc3ccncc3)[C@H]2SC1 [CEPHAPIRIN],Inactive,0,< 4,Inactive,0,< 4,Inactive,0,< 4,Inactive,0,< 4,0,0,Inactive,Inactive,0,< 4,
O=C(O)COCCN1CCN(C(c2ccccc2)c2ccc(Cl)cc2)CC1 (stereo unspecified) [CETIRIZINE],Inactive,1,< 4,Inactive,1.3,>= 4,Inactive,0,< 4,Inactive,1,< 4,,,,Inactive,0.6,< 4,Composite Activity - Active (Hepatotoxicity [5]; Liver): 0; Composite Activity - Marginal (Hepatotoxicity [5]; Liver): 0; Composite Activity - Score (Hepatotoxicity [5]; Liver): Inactive
C[C@H](CCC(=O)O)[C@H]1CC[C@H]2[C@@H]3[C@H](O)C[C@@H]4C[C@H](O)CC[C@]4(C)[C@H]3CC[C@]12C [CHENODIOL],Inactive,0,< 4,Inactive,0,< 4,Inactive,0,< 4,Inactive,0,< 4,0,0,Inactive,Inactive,0,< 4,
Cc1cc(C2CCCCC2)n(O)c(=O)c1 [CICLOPIROX],Inactive,0,< 4,Inactive,0,< 4,Inactive,0,< 4,Inactive,0,< 4,0,0,Inactive,Inactive,0,< 4,
Nc1ccn(C[C@@H](CO)OCP(=O)(O)O)c(=O)n1.O.O [CIDOFOVIR],Inactive,46.1,< 4,Inactive,0,< 4,Active,92.2,< 4,Inactive,46.1,< 4,1,0,Inactive,Inactive,0,< 4,
CCn1nc(C(=O)O)c(=O)c2cc3c(cc21)OCO3 [CINOXACIN],Active,16.9,>= 4,Active,15.1,>= 4,Inactive,0,< 4,Inactive,0,< 4,2,0,Active,Inactive,0,< 4,
O=C(O)c1cn(C2CC2)c2cc(N3CCNCC3)c(F)cc2c1=O [CIPROFLOXACIN],Marginally Active,3.1,>= 4,Inactive,2.1,>= 4,Inactive,2.3,>= 4,Inactive,0.9,>= 4,,,,Inactive,0.8,>= 4,Composite Activity - Active (Hepatotoxicity [5]; Liver): 0; Composite Activity - Marginal (Hepatotoxicity [5]; Liver): 1; Composite Activity - Score (Hepatotoxicity [5]; Liver): Inactive
COc1cc(N)c(Cl)cc1C(=O)NC1CCN(CCCOc2ccc(F)cc2)CC1OC (stereo unspecified) [CISAPRIDE],Inactive,0.3,>= 4,Inactive,0.4,>= 4,Inactive,0.2,>= 4,Inactive,0.1,< 4,0,0,Inactive,Inactive,0.2,< 4,
